Source: US7060808B1, “Humanized anti-EGF receptor monoclonal antibody” (ImClone Systems Incorporated, priority 1995, dated 2006)

Test system: A431 cells
Test: Inhibition of A431 cells by 225-CDR peptides (3H-thymidine)
Type: cell-based, human
Conditions: 72 hours, FIG. 5
Experimental: These peptides were dissolved in PBS at a concentration of 1 mg/ml. A431 cells were plated at 1000 cells per well in 96 well plates. Peptides were added at various concentrations. […] Plates were incubated for 72 hours at 37° C. and pulsed overnight with ^3H-thymidine. Cells were harvested and counted in a liquid scintillation counter. Percent inhibition is defined as the decrease in 3-H thymidine incorporation of antibody or peptide treated cells compared to cells grown in the absence of antibody or peptide.

Substance	inhibition of A431 cells (3H-thymidine incorporation)
NYGVH [heavy chain CDR-1]	inhibited
GVIWSGGNTDYNTPFTSR [heavy chain CDR-2]	inhibited
